Source: the supplement of paper PMC10307832

Assays:
Assay in all cases: relative viability (nuclei count vs DMSO), 5 days (fraction); higher = more cells survive
[1] = compound: C1CC1C(=O)NC2=NNC3=C2C=CC(=C3)C4=CC(=CC=C4)C(=O)NC5CC5 [XMD13-2] + CS(=O)(=O)CCNCc1ccc(-c2ccc3ncnc(Nc4ccc(OCc5cccc(F)c5)c(Cl)c4)c3c2)o1 [Lapatinib] (partner 2 µM)
Summary of the method: (§1)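 Relative viability equals treated-well nuclei counts divided by vehicle-well nuclei counts. Counts came from 4× images of lung cancer cell lines grown in 1536-well plates for 5 days after pin-tool dosing on the day after seeding. Dosing used one drug alone or a fixed anchor-drug dose plus five library-drug doses (not always all listed) in √10 steps, and values are medians of duplicate plates.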

[2] = compound: Cc1nc(Nc2ncc(C(=O)Nc3c(C)cccc3Cl)s2)cc(N2CCN(CCO)CC2)n1 [Dasatinib] + Cc1nc(NC(=O)N2CCC[C@H]2C(N)=O)sc1-c1ccnc(C(C)(C)C(F)(F)F)c1 [Alpelisib] (partner 2 µM)
Summary of the method: as §1

[3] = compound: Cc1nc(Nc2ncc(C(=O)Nc3c(C)cccc3Cl)s2)cc(N2CCN(CCO)CC2)n1 [Dasatinib] + Cc1cc(Nc2cc(N3CCN(C)CC3)nc(Sc3ccc(NC(=O)C4CC4)cc3)n2)n[nH]1 [Tozasertib] (partner 0.1 µM)
Summary of the method: as §1

[4] = compound: C1CC1C(=O)NC2=NNC3=C2C=CC(=C3)C4=CC(=CC=C4)C(=O)NC5CC5 [XMD13-2] + CC(=O)c1c(C)c2cnc(Nc3ccc(N4CCNCC4)cn3)nc2n(C2CCCC2)c1=O [Palbociclib] (partner 0.5 µM)
Summary of the method: as §1

Cell Line | relative viability ([1]; first compound 0.05 µM) | relative viability ([1]; first compound 0.1581 µM) | relative viability ([1]; first compound 0.5 µM) | relative viability ([1]; first compound 1.581 µM) | relative viability ([1]; first compound 5 µM) | relative viability ([2]; first compound 0.005 µM) | relative viability ([2]; first compound 0.01581 µM) | relative viability ([2]; first compound 0.05 µM) | relative viability ([2]; first compound 0.1581 µM) | relative viability ([2]; first compound 0.5 µM) | relative viability ([3]; first compound 0.005 µM) | relative viability ([3]; first compound 0.01581 µM) | relative viability ([3]; first compound 0.05 µM) | relative viability ([3]; first compound 0.1581 µM) | relative viability ([3]; first compound 0.5 µM) | relative viability ([4]; first compound 0.05 µM) | relative viability ([4]; first compound 0.1581 µM) | relative viability ([4]; first compound 0.5 µM) | relative viability ([4]; first compound 1.581 µM) | relative viability ([4]; first compound 5 µM)
HCC-78 | 1.2 | 0.775 | 0.782 | 0.616 | 0.521 | 0.259 | 0.261 | 0.304 | 0.257 | 0.176 | 0.47 | 0.371 | 0.395 | 0.242 | 0.181 | 0.45 | 0.459 | 0.448 | 0.438 | 0.483
LCLC-97TM1 | 1.19 | 0.693 | 1.23 | 0.75 | 0.825 | 0.266 | 0.246 | 0.24 | 0.254 | 0.143 | 0.187 | 0.211 | 0.244 | 0.217 | 0.159 | 0.217 | 0.284 | 0.229 | 0.219 | 0.182
NCI-H838 | 1.17 | 1.14 | 1.13 | 1.03 | 0.959 | 0.82 | 0.678 | 0.585 | 0.308 | 0.233 | 0.279 | 0.292 | 0.245 | 0.179 | 0.2 | 0.238 | 0.214 | 0.249 | 0.224 | 0.205
NCI-H520 | 1.06 | 0.923 | 0.924 | 0.717 | 0.354 | 0.539 | 0.456 | 0.457 | 0.145 | 0.142 | 0.356 | 0.284 | 0.294 | 0.239 | 0.179 | 0.256 | 0.239 | 0.213 | 0.203 | 0.188
NCI-H2347 | 0.987 | 0.93 | 0.912 | 1.04 | 0.973 | 0.845 | 0.817 | 0.783 | 0.327 | 0.34 | 0.56 | 0.454 | 0.363 | 0.238 | 0.263 | 0.471 | 0.424 | 0.465 | 0.382 | 0.471
NCI-H1944 | 1.01 | 0.726 | 0.95 | 1.06 | 0.746 | 0.781 | 0.725 | 0.575 | 0.289 | 0.203 | 0.259 | 0.223 | 0.201 | 0.111 | 0.104 | 0.323 | 0.312 | 0.325 | 0.351 | 0.322
NCI-H2405 | 1.18 | 1 | 0.95 | 0.957 | 1.09 | 0.621 | 0.334 | 0.366 | 0.23 | 0.162 | 0.639 | 0.468 | 0.448 | 0.222 | 0.161 | 0.545 | 0.529 | 0.474 |  | 0.518
HCC-15 | 0.983 | 0.761 | 0.918 | 0.801 | 0.519 | 0.875 | 0.783 | 0.779 | 0.53 | 0.528 | 0.424 | 0.403 | 0.338 | 0.251 | 0.235 | 0.798 | 0.684 | 0.803 | 0.709 | 0.594
